Laboratory results as given in patent publication US20060287345A1, “Substituted 4-phenyl-4-[1h-imidazol-2-yl]-piperidine derivatives as selective non-peptide delta opiod agonists with antidepressant and anxiolytic activity” (priority 2003, published 2006).
Where two headings read alike, the source gives them in different places.

Key:
NMRI mice = assay: Mouse tail suspension test; type: in vivo; details: s.c., immobility, 30 min after administration
C57BL/6 mice = assay: Mouse forced swim test; type: in vivo; details: s.c., immobility, treatment 30 min prior to test
Procedure: (§1) Antidepressant- and anxiolytic like properties of the compounds were examined in mouse tail suspension test (TS), mouse forced swim test (FS) and mouse neonatal ultrasonic vocalization test (USV).
This test has been validated as test for antidepressant-like activity (Borsini and Meli, Psychopharmacology 1988, 94, 147).
Adult male C57BL/6 mice (body weight 22-24 g Charles River, Sulzfeld, Germany) were housed individually in IVC racks and maintained under a 12:12 h light/dark cycle (lights on at 6:00 b), with food and water ad libitum.
A clear glass beaker (10 cm in diameter, 25 cm high) was filled to a depth of 10 cm with water (25° C.). Mice were placed into the water for 6 min. Immobility during the first and the last 3 min were scored automatically using the Videotrack video tracking system (Viewpoint, France), which allows detection of individual pixel movements. Four animals were tested in parallel. Treatment was given 30 min prior to test (s.c., 10 ml/kg). The water was replaced after each animal.
(§2) Data were analyzed using the non-parametric, unadjusted Wilcoxon-Mann-Whitney rank sum test. Each dose was compared with vehicle.

neonatal C57BL/6 mice = assay: Mouse neonatal ultrasonic vocalization test; type: in vivo; details: s.c., postnatal day 3, 30 min after injection
Description: as §1
Anxiolytic compounds typically decrease the vocalizations in rat pups separated from their mother (Olivier et al., Eur. J. Pharmacol. 1998, 358, 117) More recently, this test has also been established in mice (Dirks et al., Pharmacol. Biochem. Behav. 2002, 72, 993).
Seventeen days pregnant C57BL/6 mice were obtained from Charles River (Sulzfeld, Germany). They were housed and maintained at a constant temperature of 22° C., under a 12:12 h reversed light/dark cycle (lights off at 6:00 h), with food and water ad libitum. Two times per day, cages were checked for newborn litters. Litter size was 5-8 pups/litter.
Ultrasonic vocalizatiors (USVs) were recorded in a sound attenuating, ventilated chamber at room temperature, detected at 60 kHz (range 50-70 kHz) by a bat recorder in combination with the UltraVox system (Noldus, The Netherlands). No filter was used in order to be able to record pup clicks.
Distress calls of neonatal mice were measured in neonatal C57BL/6 mice at postnatal day 3 during the early dark phase (between 8:00 and 12:00). Pups were weighed (body weight 2-3 g), followed by subcutaneous injection (10 ml/kg), and placed back into the nest. After 30 min, they were separated from the mother and placed into a beaker underneath the bat detector. The number of calls and the duration of calls were recorded over a period of 5 min.
as §2

[1] = molecular target: T1, cloned human δ opioid receptor (Homo sapiens, UniProt P41143); assay: Radioligand binding, competitive inhibition of [3H]DPDPE
T1 construct: expressed in transfected cells; host or cells: C6 glioma cells (permanently transfected)

[2] = molecular target: cloned human μ opioid receptor (Homo sapiens, UniProt P35372); assay: Radioligand binding, competition with [3H]DAMGO; details: Table 8, CHO membranes, read-out: Agonist receptor binding (pIC50) mu (converted)
δ opioid receptor [3] = molecular target: T2, δ opioid receptor (Homo sapiens, UniProt P41143); assay: [35S]GTPγS binding, delta agonism; type: biochemical
T2 construct: expressed in transfected cells; host or cells: C6 glioma cells (permanently transfected)
Procedure: Second messenger signaling was measured on membrane preparations via stimulation of [^35S]GTPγS binding In this functional assay, agonistic and antagonistic properties of the compounds were investigated.
The assay mixtures contained 10 μg of membrane protein. An additional 10 μg/ml saponire was added to the diluted membranes as a detergent to maximize the [^35S]GTPγS penetration through the membranes.
For testing agonistic activity, 175 μl of diluted membranes was pre-incubated in the buffer described above together with 25 μl of buffer and 25 μl of varying concentrations of the compound in a total volume of 225 μl. For antagonistic activities, the 25 μl of the buffer addition was replaced with the reference agonist for stimulating the basal levels. […]
The amount of bound radioactivity on the filter unit was determined after filter drying and scintillant addition (Nicroscint-O; Packard) by liquid scintillation counting.
Basal [^35S]GTPγS binding was measured in absence of compounds. Stimulation by agonist was calculated as the percentage increase above basal levels. The sigmoid agonist concentration response curves for increases in [^35S]GTPγS binding and antagonist inhibition curves for inhibition of the reference agonist-stimulated [^35S]GTPγS binding were analyzed by non-linear regression using the GraphPad Prism program. […]

δ opioid receptor [4] = molecular target: T2, δ opioid receptor; assay: Signal transport binding, delta antagonism; type: biochemical
[5] = Table 7, delta opioid receptor, read-out: pIC50 values for the delta opioid receptor agonist test (converted)

T2 sequence (P41143 whole entry): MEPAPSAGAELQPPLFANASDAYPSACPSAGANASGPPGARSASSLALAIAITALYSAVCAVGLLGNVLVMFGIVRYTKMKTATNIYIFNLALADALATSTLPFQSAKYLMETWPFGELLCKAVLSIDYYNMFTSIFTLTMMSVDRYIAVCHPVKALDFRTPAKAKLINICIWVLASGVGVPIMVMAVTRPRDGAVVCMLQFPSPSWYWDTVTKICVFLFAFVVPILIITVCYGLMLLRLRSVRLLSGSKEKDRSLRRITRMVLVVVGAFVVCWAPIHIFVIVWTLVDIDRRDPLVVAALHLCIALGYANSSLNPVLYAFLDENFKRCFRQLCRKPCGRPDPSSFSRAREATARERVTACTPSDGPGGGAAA
T1 sequence (P41143 whole entry): as above
cloned human μ opioid receptor, sequence (P35372 whole entry): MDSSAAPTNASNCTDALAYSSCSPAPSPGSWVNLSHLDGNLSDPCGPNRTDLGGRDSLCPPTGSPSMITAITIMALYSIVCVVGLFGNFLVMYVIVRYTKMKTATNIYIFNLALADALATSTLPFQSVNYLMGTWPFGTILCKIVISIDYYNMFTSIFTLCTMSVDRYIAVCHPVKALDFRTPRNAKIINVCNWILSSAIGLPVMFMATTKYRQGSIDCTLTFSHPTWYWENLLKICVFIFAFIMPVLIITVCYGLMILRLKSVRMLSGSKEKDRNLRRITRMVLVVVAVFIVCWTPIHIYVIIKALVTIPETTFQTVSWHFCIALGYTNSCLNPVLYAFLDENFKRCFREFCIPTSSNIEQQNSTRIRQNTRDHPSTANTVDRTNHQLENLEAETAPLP

With `CCOC(=O)N1CCC(c2ccccc2)(c2nccn2Cc2ccccc2)CC1` [Compound 1, ethyl 4-phenyl-4-[1-(phenylmethyl)-1H-imidazol-2-yl]-1-piperidinecarboxylate] the “Tail suspension LAD (Lowest Active Dose tested)” value (“Tail suspension LAD” for short) (NMRI mice) was 30 mg/kg s.c, the “Forced swim (LAD) (Lowest Active Dose tested)” value (C57BL/6 mice) was 30 mg/kg s.c and the “Ultrasonic vocalization (LAD) (Lowest Active Dose tested)” value (“Ultrasonic vocalization (LAD)” below) (neonatal C57BL/6 mice) was 10 mg/kg s.c.

For `O=C(c1ccccc1)N1CCC(c2ccccc2)(c2nccn2Cc2ccccc2)CC1` [Compound 2], the “Tail suspension LAD” value (NMRI mice) was 10 mg/kg s.c and the “Ultrasonic vocalization (LAD)” value (neonatal C57BL/6 mice) was 1 mg/kg s.c.

In the case of `CCOC(=O)N1CCC(c2ccccc2)(c2nccn2Cc2ccc(C(=O)OC)cc2)CC1` [Compound 3], the melting point is reported as 149.1 °C.

`CCN/C(=N/C#N)N1CCC(c2ccccc2)(c2nccn2Cc2ccccc2)CC1` [Compound 4] gave an IC50 [1] of 50.1 nM and a melting point of 84.2 °C.

In the case of `COC(=O)c1ccccc1NC(=O)N1CCC(c2ccccc2)(c2nccn2Cc2ccccc2)CC1` [Compound 7], the IC50 [1] is reported as 20 nM.

Work on `CCOC(=O)N1CCC(c2ccccc2)(c2nccn2Cc2ccc(C(=O)O)cc2)CC1` [Compound 8] yielded a melting point of 251.6 °C.

With `O=C(Nc1ccccc1CO)N1CCC(c2ccccc2)(c2nccn2Cc2ccccc2)CC1` [Compound 10] the IC50 [1, 5] was 63.1 nM.

In the case of `O=C(O)c1ccccc1NC(=O)N1CCC(c2ccccc2)(c2nccn2Cc2ccccc2)CC1` [Compound 11], the IC50 [1, 5] is reported as 15.8 nM.

With `CCOC(=O)c1ccc(C(C)n2ccnc2C2(c3ccccc3)CCN(C(=O)OCC)CC2)cc1` (centres unmarked) [Compound 19] the IC50 ([1]; Agonist receptor binding (pIC50) delta, Table 8, [3H]DPDPE 2 nM, C6 glioma cell membranes) was 6.31 nM, the IC50 ([2]; [3H]DAMGO 1 nM) was > 1000 nM and the IC50 (δ opioid receptor [3]; Table 8, [35S]GTPγS binding, membranes, read-out: Signal transport binding (pIC50) delta agonism GTPγS (converted)) was 316 nM. The IC50 (δ opioid receptor [4]; Table 8, against reference agonist DPDPE, read-out: Signal transport binding (pIC50) delta antag. (converted)) was > 10000 nM.

For `CCOC(=O)N1CCC(c2ccccc2)(c2nccn2C(C)c2ccccc2)CC1` (centres unmarked) [Compound 20], the “Tail suspension LAD” value (NMRI mice) was 30 mg/kg s.c and the “Ultrasonic vocalization (LAD)” value (neonatal C57BL/6 mice) was 30 mg/kg s.c.

`CCOC(=O)N1CCC(c2ccccc2)(c2nccn2Cc2ccc3ccccc3c2)CC1` [Compound 22] gave an IC50 [1, 5] of 50.1 nM.

Molecule `O=C(OC1CCCCC1)N1CCC(c2ccccc2)(c2nccn2Cc2ccccc2)CC1` [Compound 28] has an IC50 [1] of 15.8 nM.

Work on `O=C(C1CC1)N1CCC(c2ccccc2)(c2nccn2Cc2ccccc2)CC1` [Compound 36] yielded an IC50 [1] of 50.1 nM.

`O=C(c1cc(C(F)(F)F)cc(C(F)(F)F)c1)N1CCC(c2ccccc2)(c2nccn2Cc2ccccc2)CC1` [Compound 42] showed an IC50 [1, 5] of 63.1 nM.

In the case of `CCOC(=O)CNC(=O)N1CCC(c2ccccc2)(c2nccn2Cc2ccccc2)CC1` [Compound 48], the IC50 [1] is reported as 79.4 nM.

In the case of `CCCCNC(=O)N1CCC(c2ccccc2)(c2nccn2Cc2ccccc2)CC1` [Compound 50], the IC50 [1] is reported as 25.1 nM.

`O=C(NC1CCCCC1)N1CCC(c2ccccc2)(c2nccn2Cc2ccccc2)CC1` [Compound 51] showed an IC50 [1] of 50.1 nM.

In the case of `COC(=O)c1ccc(Cn2ccnc2C2(c3ccccc3)CCN(C(=O)Nc3ccccc3)CC2)cc1` [Compound 52], the IC50 [1, 5] is reported as 20 nM.

`O=C(Nc1ccccc1Cl)N1CCC(c2ccccc2)(c2nccn2Cc2ccccc2)CC1` [Compound 65] showed an IC50 [1, 5] of 31.6 nM.

In the case of `O=C(Nc1ccccc1Br)N1CCC(c2ccccc2)(c2nccn2Cc2ccccc2)CC1` [Compound 66], the IC50 [1] is reported as 31.6 nM.

Work on `CCOc1ccccc1NC(=O)N1CCC(c2ccccc2)(c2nccn2Cc2ccccc2)CC1` [Compound 70] yielded an IC50 [1] of 39.8 nM.

In the case of `O=C(Nc1ccc([N+](=O)[O-])cc1)N1CCC(c2ccccc2)(c2nccn2Cc2ccccc2)CC1` [Compound 71], the IC50 [1] is reported as 50.1 nM.

In the case of `O=C(Nc1ccccc1Oc1ccccc1)N1CCC(c2ccccc2)(c2nccn2Cc2ccccc2)CC1` [Compound 75], the IC50 [1] is reported as 39.8 nM.

Molecule `CSc1ccccc1NC(=O)N1CCC(c2ccccc2)(c2nccn2Cc2ccccc2)CC1` [Compound 76] has an IC50 [1] of 39.8 nM.

With `COc1ccc(Cl)cc1NC(=O)N1CCC(c2ccccc2)(c2nccn2Cc2ccccc2)CC1` [Compound 78] the IC50 [1, 5] was 12.6 nM.

For `O=C(NCc1ccccc1)N1CCC(c2ccccc2)(c2nccn2Cc2ccccc2)CC1` [Compound 80], the IC50 [1] was 79.4 nM.

With `O=C(Nc1ccc2ccccc2c1)N1CCC(c2ccccc2)(c2nccn2Cc2ccccc2)CC1` [Compound 81] the IC50 [1] was 63.1 nM.

Work on `O=C(c1csc(-c2cccnc2)n1)N1CCC(c2ccccc2)(c2nccn2Cc2ccccc2)CC1` [Compound 84] yielded an IC50 [1, 5] of 31.6 nM.

`O=C(Nc1ccccn1)N1CCC(c2ccccc2)(c2nccn2Cc2ccccc2)CC1` [Compound 87] gave an IC50 [1] of 50.1 nM.

Molecule `O=S(=O)(Nc1ccccc1)N1CCC(c2ccccc2)(c2nccn2Cc2ccccc2)CC1` [Compound 98] has an IC50 [1] of 6.31 nM, an IC50 ([2]; [[…] 1 nM) of 2510 nM and an IC50 (δ opioid receptor [3]) of 794 nM. The IC50 (δ opioid receptor [4]) was > 10000 nM.

With `CCN(CC)C(=O)c1ccc(Cn2ccnc2C2(c3ccccc3)CCN(c3nc4ccccc4o3)CC2)cc1` [Compound 99] the IC50 [1] was 50.1 nM.

With `CC(c1ccccc1)n1ccnc1C1(c2ccccc2)CCN(c2nc3ccccc3o2)CC1` (centres unmarked) [Compound 101] the IC50 [1] was 15.8 nM.

In the case of `COC(=O)c1ccc(Cn2ccnc2C2(c3ccccc3)CCN(c3nc4ccccc4s3)CC2)cc1` [Compound 102], the IC50 ([1]; Table 8, [3H]DPDPE 2 nM, C6 glioma cell membranes, read-out: Agonist receptor binding (pIC50) delta (converted)) is reported as 3.16 nM and the IC50 ([2]; [3H]DAMGO 1 nM) is reported as > 1000 nM.

With `c1ccc(Cn2ccnc2C2(c3ccccc3)CCN(c3ncccn3)CC2)cc1` [Compound 103] the IC50 [1] was 20 nM.

Work on `c1ccc(Cn2ccnc2C2(c3ccccc3)CCN(c3nccs3)CC2)cc1` [Compound 105] yielded an IC50 [1] of 12.6 nM.
